The text below walks through data of patent US8796458B2, “Cyclohexylamine isoquinolone derivatives” (Sanofi, priority 2005, dated 2014).

Molecules are shown by their SMILES.

T1 sequence (O75116 whole entry): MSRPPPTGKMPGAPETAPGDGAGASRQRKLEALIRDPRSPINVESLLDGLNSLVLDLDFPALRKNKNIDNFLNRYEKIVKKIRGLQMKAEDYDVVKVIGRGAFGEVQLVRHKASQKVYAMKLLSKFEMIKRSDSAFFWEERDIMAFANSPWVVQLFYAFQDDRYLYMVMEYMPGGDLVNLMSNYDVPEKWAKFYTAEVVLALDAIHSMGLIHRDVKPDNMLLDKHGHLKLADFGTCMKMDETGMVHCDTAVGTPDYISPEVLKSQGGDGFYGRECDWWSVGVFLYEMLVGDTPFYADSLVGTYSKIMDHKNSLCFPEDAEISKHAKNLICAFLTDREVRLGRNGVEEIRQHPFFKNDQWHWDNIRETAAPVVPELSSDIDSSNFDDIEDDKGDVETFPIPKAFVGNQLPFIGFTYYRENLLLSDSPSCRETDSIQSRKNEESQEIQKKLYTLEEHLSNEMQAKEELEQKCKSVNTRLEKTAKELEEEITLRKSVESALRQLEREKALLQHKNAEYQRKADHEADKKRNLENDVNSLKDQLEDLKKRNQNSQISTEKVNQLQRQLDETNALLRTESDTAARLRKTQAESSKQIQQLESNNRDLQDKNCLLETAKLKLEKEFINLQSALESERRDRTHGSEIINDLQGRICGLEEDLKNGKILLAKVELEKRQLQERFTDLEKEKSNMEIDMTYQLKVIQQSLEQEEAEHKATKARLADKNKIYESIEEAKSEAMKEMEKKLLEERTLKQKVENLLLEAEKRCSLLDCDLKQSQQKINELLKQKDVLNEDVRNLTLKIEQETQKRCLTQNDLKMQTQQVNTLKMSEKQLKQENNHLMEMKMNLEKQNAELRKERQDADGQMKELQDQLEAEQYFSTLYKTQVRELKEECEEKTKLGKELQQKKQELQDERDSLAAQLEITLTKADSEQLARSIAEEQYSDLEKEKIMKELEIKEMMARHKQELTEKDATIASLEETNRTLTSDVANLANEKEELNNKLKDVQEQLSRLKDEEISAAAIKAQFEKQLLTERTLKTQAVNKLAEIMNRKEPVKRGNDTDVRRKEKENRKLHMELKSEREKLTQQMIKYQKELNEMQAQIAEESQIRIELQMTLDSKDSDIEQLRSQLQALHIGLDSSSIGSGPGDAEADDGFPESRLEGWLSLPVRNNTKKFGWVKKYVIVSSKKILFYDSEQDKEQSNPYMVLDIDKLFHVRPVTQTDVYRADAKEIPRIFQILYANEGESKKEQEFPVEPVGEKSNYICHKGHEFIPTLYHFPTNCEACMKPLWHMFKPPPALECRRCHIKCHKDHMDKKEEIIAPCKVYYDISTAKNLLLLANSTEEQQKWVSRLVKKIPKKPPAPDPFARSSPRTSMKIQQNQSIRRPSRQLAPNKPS

This test has as its target T1, ROCKII or ROKα (Homo sapiens, UniProt O75116).
T1 construct: purchased Upstate 14-451
The test is described as follows: Determination of Rho kinase inhibition (33P-ATP Flash Plate assay). The test is classed as biochemical. The note with it: ATP 40 μM, respective form (salt or free base) as obtained in the examples. How it is done: Determination of Rho Kinase Inhibition
To measure Rho-kinase inhibition, IC50 values were determined according to the following protocol:
Buffer: 25 mM Tris pH7.5; 0.02% BSA; 5% Glycerol; 0.008% Triton X100; 2% DMSO, 1 mM DTT; 1 mM MgCl2; 0.5 μCi/well γ^33P ATP
Enzyme: ROCKII or ROKα) (Upstate, Catalog #14-451) 0.1 ng/μl
Final concentration of ATP in reaction mixture 40 μM
Biotinylated substrate, diluted to 0.25 μM with buffer described above (without ATP) • 1. 10 μl Tris buffer (±Inhibitor) • 2. Add 30 μL of enzyme solution • 3. Start the reaction with 30 μL of mix substrate/ATP/ATP33 • 4. Incubate for 20 min at room temperature • 5. Stop reaction with 30 μL of 50 mM EDTA • 6. Transfer 50 μL of stopped solution to Streptavidin Flash Plate plus, Perkin Elmer, SMP 103A • 7. Incubate for 30 min at RT • 8. Wash 4 times with 300 μl of PBS/0.1% Tween 20 • 9. Radioactivity in the well was determined
The following products/compounds were tested in said assay by using the respective form (salt or free base) obtained as in the examples described above and the following activities were measured.
As to `N[C@H]1CC[C@@H](Oc2cc3cc[nH]c(=O)c3cc2Cl)CC1` [Example 10, 6-(cis-4-Amino-cyclohexyloxy)-7-chloro-2H-isoquinolin-1-one], the pIC50 entry is on record as “+++++ (6.0≦pIC50)”. For `N[C@H]1CC[C@@H](Oc2ccc3c(=O)[nH]ccc3c2Cl)CC1` [Example 11, 6-(cis-4-Amino-cyclohexyloxy)-5-chloro-2H-isoquinolin-1-one], the pIC50 entry is given as “+++++ (6.0≦pIC50)”.

Consider `O=c1[nH]ccc2cc(O[C@H]3CC[C@@H](NC4CC4)CC3)c(Cl)cc12` [Example 12, 7-Chloro-6-(cis-4-cyclopropylamino-cyclohexyloxy)-2H-isoquinolin-1-one], for which the pIC50 entry is on record as “+++++ (6.0≦pIC50)”.

Turning to `O=c1[nH]ccc2cc(O[C@H]3CC[C@@H](N(C4CC4)C4CC4)CC3)c(Cl)cc12` [Example 13, 7-Chloro-6-(cis-4-dicyclopropylamino-cyclohexyloxy)-2H-isoquinolin-1-one], the pIC50 result is recorded as “+++++ (6.0≦pIC50)”. To `N[C@H]1CC[C@H](Oc2cc3cc[nH]c(=O)c3cc2Cl)CC1` [Example 14, 6-(trans-4-Amino-cyclohexyloxy)-7-chloro-isoquinolin-1-ol] belongs “+++++ (6.0≦pIC50)”; to `N[C@H]1CC[C@H](Oc2ccc3c(=O)[nH]ccc3c2)CC1` [Example 20, trans-6-(4-Amino-cyclohexyloxy)-2H-isoquinolin-1-one], “+++++ (6.0≦pIC50)”; to `CCN[C@H]1CC[C@@H](Oc2cc3cc[nH]c(=O)c3cc2Cl)CC1` [Example 29], “+++++ (6.0≦pIC50)”. The entry for `O=c1[nH]ccc2cc(O[C@H]3CC[C@@H](NCc4cccc(Cl)c4)CC3)c(Cl)cc12` [Example 37] is “+++++ (6.0≦pIC50)”; for `O=c1[nH]ccc2cc(O[C@H]3CC[C@@H](N(CC4CC4)CC4CC4)CC3)c(Cl)cc12` [Example 41] it is “+++++ (6.0≦pIC50)”.

Take `CCCN[C@H]1CC[C@@H](Oc2ccc3c(=O)[nH]ccc3c2Cl)CC1` [Example 44]: the pIC50 entry is recorded as “+++++ (6.0≦pIC50)”. To `CCCCN[C@H]1CC[C@@H](Oc2ccc3c(=O)[nH]ccc3c2Cl)CC1` [Example 45] belongs “+++++ (6.0≦pIC50)”. For `CC(C)N[C@H]1CC[C@@H](Oc2ccc3c(=O)[nH]ccc3c2Cl)CC1` [Example 46], the pIC50 entry is listed as “+++++ (6.0≦pIC50)”. Turning to `O=c1[nH]ccc2c(Cl)c(O[C@H]3CC[C@@H](NCC4CC4)CC3)ccc12` [Example 48], the pIC50 entry is reported as “+++++ (6.0≦pIC50)”. Take `CCCCN(CCCC)[C@H]1CC[C@@H](Oc2ccc3c(=O)[nH]ccc3c2Cl)CC1` [Example 53]: the pIC50 entry is “++++ (5.0≦pIC50<6.0)”. `CCN(CC)[C@H]1CC[C@H](Oc2cc3cc[nH]c(=O)c3cc2Cl)CC1` [Example 56]: the pIC50 result is “+++++ (6.0≦pIC50)”. As to `CCCCN[C@H]1CC[C@H](Oc2cc3cc[nH]c(=O)c3cc2Cl)CC1` [Example 58], the pIC50 result is “+++++ (6.0≦pIC50)”. As to `CC(C)CN(CC(C)C)[C@H]1CC[C@H](Oc2cc3cc[nH]c(=O)c3cc2Cl)CC1` [Example 65], the pIC50 entry is given as “+++++ (6.0≦pIC50)”. To `O=c1[nH]ccc2cc(O[C@H]3CC[C@H](N(CC4CC4)CC4CC4)CC3)c(Cl)cc12` [Example 66] belongs “++++ (5.0≦pIC50<6.0)”; to `O=c1[nH]ccc2cc(O[C@H]3CC[C@@H](NCc4ccccc4)CC3)c(Cl)cc12` [Example 67], “+++++ (6.0≦pIC50)”. To `O=c1[nH]ccc2cc(O[C@H]3CC[C@@H](NCc4cc(Cl)cc(Cl)c4)CC3)c(Cl)cc12` [Example 69] belongs “+++++ (6.0≦pIC50)”; to `O=c1[nH]ccc2cc(O[C@H]3CC[C@@H](NCc4cc(Cl)ccc4Cl)CC3)c(Cl)cc12` [Example 70], “+++++ (6.0≦pIC50)”; to `O=c1[nH]ccc2cc(O[C@H]3CC[C@@H](NCc4ccc(Cl)cc4Cl)CC3)c(Cl)cc12` [Example 71], “+++++ (6.0≦pIC50)”. As for `O=c1[nH]ccc2cc(O[C@H]3CC[C@@H](NCc4ccc5ccccc5c4)CC3)c(Cl)cc12` [Example 77], the pIC50 result is “+++++ (6.0≦pIC50)”. `O=c1[nH]ccc2cc(O[C@H]3CC[C@@H](NCC4CC4)CC3)ccc12` [Example 125, 6-[cis-4-(Cyclopropylmethyl-amino)-cyclohexyloxy]-2H-isoquinolin-1-one]: the pIC50 entry is given as “+++++ (6.0≦pIC50)”. To `Cc1cc2c(=O)[nH]ccc2cc1O[C@H]1CC[C@H](N)CC1` [Example 137, 6-(trans-4-Amino-cyclohexyloxy)-7-methyl-2H-isoquinolin-1-one] belongs “+++++ (6.0≦pIC50)”. The entry for `Cc1cc2c(=O)[nH]ccc2cc1O[C@H]1CC[C@@H](N)CC1.Cl` [Example 138, 6-(cis-4-Amino-cyclohexyloxy)-7-methyl-2H-isoquinolin-1-one] is “+++++ (6.0≦pIC50)”.
